Laboratory results reported in patent US10196359B2, “2-alkyloxy benzene formyl arylamine compound and pharmaceutical use thereof” (FUDAN UNIVERSITY, priority 2014, dated 2019).

How the values were obtained:
[1] = biological target: T1, Sphingomyelin Synthase 2 (SMS2) (Homo sapiens, UniProt Q8NHU3); experiment: In vitro inhibition of sphingomyelin synthase 2, HPLC fluorogenic quantitative detecting method (C6-NBD-ceramide to C6-NBD-SM, SMS2 high-expressed insect cell homogenate); format: biochemical; conditions: for inhibition at 10 µM: read-out: inhibition rate; for IC50: five concentrations, three parallel groups, experimental value, read-out: SMS2 Median Inhibitory Concentration IC50
T1 construct: made in house; used as homogenate
T1 sequence (Q8NHU3 1-365): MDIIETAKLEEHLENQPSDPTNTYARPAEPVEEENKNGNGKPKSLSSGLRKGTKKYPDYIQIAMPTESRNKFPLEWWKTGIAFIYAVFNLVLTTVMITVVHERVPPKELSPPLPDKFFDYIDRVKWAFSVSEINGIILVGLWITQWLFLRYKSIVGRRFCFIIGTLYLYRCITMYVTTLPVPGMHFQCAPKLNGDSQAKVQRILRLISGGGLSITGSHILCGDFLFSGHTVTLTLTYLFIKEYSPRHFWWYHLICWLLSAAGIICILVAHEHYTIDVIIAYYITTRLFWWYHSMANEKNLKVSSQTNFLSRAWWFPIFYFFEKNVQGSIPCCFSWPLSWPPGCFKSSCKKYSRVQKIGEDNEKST
Source text: The second aim of the present invention is to show the use of 2-alkoxy benzene formyl arylamines in preparing SMS small-molecule inhibitors. This invention evaluate SMS inhibitory activity of 2-alkoxy benzene formyl arylamines as scheme I through HPLC fluorogenic quantitative detecting method reported (Xiaodong Deng; Hong Sun; et al. Analytical Letters, 2012, 45:12, 1581-1589), which can make it possible to calculate the catalytic activity difference of SMS treated with inhibitors or not through content changes of NBD-ceramide and NBD-sphingomyelin.
9. The organic solvents were purchased from Shanghai Sinopharm Reagent Company; methanol is of HPLC grade; water is ultrapure water filtrated by Milli-Q pump and deionized and ultrafiltrated by 0.22 μm ultrafiltration membrane. Other biological supplies are purchased in domestic companies. 10. Preparation of SMS homogenate extraction buffer (Buffer1): (50 mM Tris hydrochloride, pH 7.4, 5% anhydrous sucrose, 1 mM ethylenediaminetetraacetic acid) 1.2114 g tris(hydroxymethyl)aminomethane hydrochloride (Tris-HCl) was dissolved in 100 ml distilled water. Then 84 ml 0.1 mol/L hydrochloric acid was added. Constant volume to 200 ml. Finally, 10 g sucrose and 58.45 mg EDTA were dissolved in the mixture. 11. Preparation of SMS test buffer […]: (100 mM Hepes, 30 mM MnCl2, 3% fatty acid free BSA): 1.1916 g 4-(2-hydroxyethyl)-1-peperazineethanesulfonic acid (Hepes), 0.2969 g MnCl2.4H2O and 0.3 g fatty acid free bovine serum albumin were dissolved in distilled water then constant volume to 50 ml. 12. Preparation of under tested compound solution: To each accurate weighed compound for 1˜2 mg, an appropriate amount of DMSO was added to formulate a stock solution of 6 mM precisely. To a certain volume of the DMSO stock solution of the test compound, the appropriate volume of DMSO was added to dilute the solution to the desired concentration. 13. SMS2 high-expressed insect cell homogenate was prepared by Xu Yanhui group from Institutes of Biomedical Sciences, Fudan University. Part 1 Activity Assay for Inhibition of 2-Alkoxy-Benzoyl Aromatic Amines to Sphingomyelin Synthase 2
250 μL tri-distilled water, 30 μL Buffer2, 4 μL SMS2 high-expressed insect cell homogenate (total protein content is 0.5 μg/μL) and 10 μL DMSO or DMSO solution of under tested compound were added to 1.5 mL eppendorf tube, vortex mixed for 30 seconds and then incubated in a 37° C. water bath for 0.5 h. 3 μL ethanol solution of DMPC (40 mM) and 3 μL ethanol solution of C6-NBD-Ceramide (1.16 mM) were added, vortex mixed for 30 seconds, and then incubate in a 37° C. water bath for 2.0 hours. To it 600 μL anhydrous ethanol was added vortex mixed for 1 minute and centrifuged 10 minutes in 10000 rpm and 600 μL supernatant was taken out and stored at 4° C. for HPLC analysis.
Using the same HPLC fluorogenic quantitative detecting method as reference (Xiaodong Deng; Hong Sun; et al. Analytical Letters, 2012, 45:12, 1581-1589) to analysize samples obtained above. Analysize and record peak areas of C6-NBD-SM (Asm) and C6-NBD-Ceramide (Acer) of each sample from blank group, positive control group (compound D2) and under tested compound group. The data were parallelly determined for 3 times. Calculate inhibition rate from the formula below: […]
The DMSO stock solution of under tested compound (6 mM) was diluted stepwise into five concentration gradient. 10 μL solution of each concentration was added into the trial system to prepare samples with the method mentioned in the first step of application case 12. The Asm values of the five concentration solution of tested compound were measured, and the inhibition rate under the five concentration were calculated and fitted to obtain median inhibitory concentration (IC50). Each compound was measured three parallel groups. SMS2 median inhibitory concentration of Scheme I-1˜I-60 are listed below in Table 1: […]

SMS = conditions: reference value; read-out: IC50 (SMS inhibitory activity); cited from earlier work

COc1ccc(C(=O)Nc2cccnc2)c(OCc2ccccc2Cl)c1 [Scheme I-60, 2-(2-chloro-benzyloxy)-4-methoxy-N-(pyridin-3-yl) benzamide]
inhibition at 10 µM ([1]; at 10 μM): 13.3% | IC50 [1]: > 50 µM | melting point: 129.2 to 131.9 °C

O=C(Nc1cccnc1)c1ccccc1OCc1cccc2ccccc12 [Scheme I-45, 2-((naphthalen-1-yl)methoxy)-N-(pyridin-3-yl) benzamide]
inhibition at 10 µM ([1]; at 10 μM): 78% | IC50 [1]: 2.6 µM | melting point: 91.4 to 93.9 °C

O=C(Nc1cncnc1)c1ccccc1OCc1ccccc1 [Scheme I-53, 2-benzyloxy-N-(pyrimidin-5-yl) benzamide]
inhibition at 10 µM ([1]; at 10 μM): 38.4% | IC50 [1]: > 25 µM | melting point: 112.3 to 114.9 °C

S=C(S)OC1CC2CC1C1CCCC21 (centres unmarked) [Scheme D609]
IC50 (SMS): 375 µM

O=C(O)COc1ccccc1COc1ccccc1C(=O)Nc1cccnc1 [Scheme I-47, 2-(2-((2-(pyridin-3-ylcarbamoyl)phenoxy)methyl)phenoxy) acetic acid]
inhibition at 10 µM ([1]; at 10 μM): 7.4% | IC50 [1]: > 100 µM

2-((2,5-dichloro) benzyloxy)-N-(pyridin-3-yl) benzamide [Scheme I-33]
inhibition rate ([1]; at 10 μM): 87.9% | IC50 [1]: 1 µM
